Assay results reported in US20080051387A1, “TETRAHYDROPYRIDO[3,4-D]PYRIMIDINES AND RELATED ANALOGUES” (priority 2006, published 2008).

Each molecule was assayed against T1, chimeric human H3 receptor (Homo sapiens, UniProt Q9Y5N1) (assay: Chimeric human H3 receptor GTP binding assay (agonist-stimulated GTP-gamma35S binding, Example 7)). Settings: P2 membranes of Sf9 cells, 1 μM histamine as agonist, Ki from IC50 by Cheng-Prusoff; read-out: Ki.
T1 construct: rat Galpha-i2 (Gnai2, rat); made in house; host or cells: Sf9 insect cells (baculovirus); P2 membranes
T1 sequence (Q9Y5N1 with tags, fused parts or gaps): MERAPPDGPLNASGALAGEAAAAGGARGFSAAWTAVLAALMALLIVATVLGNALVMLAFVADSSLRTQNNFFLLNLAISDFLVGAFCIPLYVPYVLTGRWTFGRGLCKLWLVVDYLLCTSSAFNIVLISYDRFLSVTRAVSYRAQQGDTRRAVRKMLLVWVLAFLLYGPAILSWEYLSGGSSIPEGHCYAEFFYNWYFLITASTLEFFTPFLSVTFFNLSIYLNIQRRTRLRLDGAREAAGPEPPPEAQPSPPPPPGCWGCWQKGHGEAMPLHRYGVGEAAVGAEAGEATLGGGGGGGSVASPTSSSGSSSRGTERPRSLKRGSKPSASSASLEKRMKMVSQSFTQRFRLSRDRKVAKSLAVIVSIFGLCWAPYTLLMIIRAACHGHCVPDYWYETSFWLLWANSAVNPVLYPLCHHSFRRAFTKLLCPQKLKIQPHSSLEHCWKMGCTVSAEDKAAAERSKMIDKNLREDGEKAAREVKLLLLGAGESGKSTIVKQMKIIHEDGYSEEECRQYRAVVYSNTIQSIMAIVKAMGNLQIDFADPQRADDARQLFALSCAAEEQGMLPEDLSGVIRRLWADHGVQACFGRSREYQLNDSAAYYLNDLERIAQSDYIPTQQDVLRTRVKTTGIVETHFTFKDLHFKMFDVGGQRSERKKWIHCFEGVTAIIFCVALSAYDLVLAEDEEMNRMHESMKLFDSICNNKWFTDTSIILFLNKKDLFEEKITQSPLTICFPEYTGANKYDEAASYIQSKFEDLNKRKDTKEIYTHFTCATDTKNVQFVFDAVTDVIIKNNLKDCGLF
Assay type: biochemical
Source text: This Example illustrates a representative assay for evaluating agonist-stimulated GTP-gamma^35S binding (“GTP binding”) activity. […] This agonist-stimulated GTP binding activity can also be used to detect partial agonism mediated by antagonist compounds. A compound analyzed in this assay is referred to herein as a “test compound.”
Four independent baculoviral stocks (one directing the expression of the chimeric human H3 receptor and three directing the expression of each of the three subunits of a heterotrimeric G-protein) are used to infect a culture of Sƒ9 cells as described above. P2 membranes are prepared as described above, and agonist-stimulated GTP binding on the P2 membranes is assessed using histamine (Sigma Chemical Co., St. Louis, Mo.) as agonist in order to ascertain that the receptor/G-protein-alpha-beta-gamma combination(s) yield a functional response as measured by GTP binding. P2 membranes are resuspended by Dounce homogenization (tight pestle) in GTP binding assay buffer (50 mM Tris pH 7.4, 120 mM NaCl, 5 mM MgCl2, 2 mM EGTA, 1 mg/ml BSA, 0.2 mg/ml bacitracin, 0.02 mg/ml aprotinin, 0.01 mg/ml saponin, 10 μM GDP) and added to assay tubes at a concentration of 35 μg protein/reaction tube. After adding increasing doses of histamine at concentrations ranging from 10-12 M to 10^−5 M, reactions are initiated by the addition of 125 pM GTP-gamma^35S (PERKIN ELMER; Boston, Mass.) with a final assay volume of 0.20 ml. In competition experiments, non-radiolabeled test compounds are added to separate reactions at concentrations ranging from 10^−10 M to 10^−6 M along with 1 μM histamine to yield a final volume of 0.20 ml.
Neutral antagonists are antagonists that are substantially free of inherent agonist activity, and include those test compounds that reduce the histamine-stimulated GTP binding activity towards, but not below, baseline levels. In contrast, in the absence of added histamine, inverse agonists reduce the GTP binding activity of the receptor-containing membranes below baseline.
After a 60-min incubation at room temperature, reactions are terminated by vacuum filtration over WHATMAN GF/C filters (pre-soaked in wash buffer, 0.1% BSA) followed by washing with ice-cold wash buffer (50 mM Tris pH 7.4, 120 mM NaCl). The amount of receptor-bound (and thereby membrane-bound) GTP-gamma^35S is determined by measuring the filter-bound radioactivity, preferably by liquid scintillation spectrometry of the washed filters. Non-specific binding is determined in parallel assays including 10 μM unlabeled GTP-gammaS and typically represents less than 5 percent of total binding. Data is expressed as percent above basal (baseline). The results of GTP binding experiments are analyzed using SIGMAPLOT software (SPSS Inc., Chicago, Ill.). IC50 values are calculated by non-linear regression analysis of dose-response curves using Kaleidograph (Synergy Software, Reading, Pa.).
Alternatively the data is analyzed as follows. First, the average bound radioactivity from negative control wells (no agonist) is subtracted from the bound radioactivity detected for each of the other experimental wells. Second, average bound radioactivity is calculated for the positive control wells (agonist wells). Then, percent inhibition for each compound tested is calculated using the equation: [formula]
Calculated IC50 values are converted to Ki values by the Cheng-Prusoff correction (Cheng and Prusoff (1973) Biochem. Pharmacol. 22(23):3099-3108). Accordingly, the following equation: Ki=IC50/(1+[L]/EC50) is used, where [L] is the histamine concentration in the GTP binding assay, and EC50 is the concentration of histamine producing a 50% response, as determined by a dose-response analysis using concentrations of histamine ranging from 10^−10 M to 10^−6 M. […]
c1nc(N2CCN(C3CCC3)CC2)nc2c1CN(C1CCC1)CC2 [Compound 609, 6-cyclobutyl-2-(4-cyclobutylpiperazin-1-yl)-5,6,7,8-tetrahydropyrido[4,3-d]pyrimidine] was tested, and the Ki was < 1 µM. For CC(=O)c1ccc(N2CCc3nc(N4CCN(C5CCC5)CC4)ncc3C2)nc1 [Compound 610, 1-{6-[2-(4-cyclobutylpiperazin-1-yl)-7,8-dihydropyrido[4,3-d]pyrimidin-6(5H)-yl]pyridin-3-yl}ethanone], the Ki was < 1 µM. For CNC(=O)c1ccc(N2CCc3nc(N4CCN(C5CCC5)CC4)ncc3C2)nc1 [Compound 648, 6-[2-(4-cyclobutylpiperazin-1-yl)-7,8-dihydropyrido[4,3-d]pyrimidin-6(5H)-yl]-N-methylnicotinamide], the Ki was < 1 µM.
